Measurements reported in patent US11925696B2, “Carbonic anhydrase IX targeting agents and methods” (priority 2016, dated 2024).
Read-outs that look alike come from different tables or passages of the source.

Legend:
HT-29 cells [1] = test: Fluorescent microscopy: binding of rhodamine-labeled CA IX conjugates to HT-29 cells; type: cell-based, human; conditions: 1 hour at 37° C.; alone or plus 100-fold excess CA IX inhibitor; confocal microscopy
Protocol: Fluorescent conjugates were incubated with HT-29 cells in the presence or absence of 100-fold excess unlabeled ligand. After washing, white light and fluorescent microscopy were used to visualize binding.
a. HT-29 cells (10^5) were seeded into chambered coverglass plates and allowed to grow to confluence over 48-72 hr. Spent medium was replaced with 0.5 mL of fresh medium containing 0.5% bovine serum albumin and various concentrations of the dye conjugate (L1-Rhodamine, L2-Rhodamine or L3-Rhodamine) alone or the dye conjugate plus 100-fold excess CA IX inhibitor L1, L2 or L3, where appropriate. After incubation for 1 hour at 37° C., cells were rinsed twice with 1 mL of incubation solution to remove unbound fluorescence and 0.5 ml of fresh incubation medium was added to the wells. Images were acquired using a confocal microscopy (FV 1000, Olympus).

[2] = system: HCT-116, HT-29, RCC4 and SK-RC-38 human cancer cell lines; test: Fluorescent microscopy: binding of L2-Rhodamine to CA IX expressing cell lines; type: cell-based
Protocol: After washing, white light and fluorescent microscopy were used to visualize binding.
b. HCT-116, HT-29, RCC4 and SK-RC-38 human cancer cell lines (10^5) were seeded into chambered coverglass plates and allowed to grow to confluence over 48-72 hr. […] After incubation for 1 hour at 37° C., cells were rinsed with incubation solution (2×1.0 mL) to remove unbound conjugate then washed with PBS (1×1.0 mL). Images were acquired using confocal microscopy (FV 1000, Olympus). […] Additionally, the punctate appearance in several of the cell lines is indicative of a rapid internalization of the bound conjugate.

HT-29 xenograft tumors = conditions: for relative average radioactive intensity in the tumor: 10 nmol tail vein, kidneys shielded
Protocol: Whole animal images were taken 4 hours post-injection. […] The percentage of the injected dose per gram of tissue was determined and plotted. Error bars represent standard deviation. (□) Competition; (▪) L2-PEG36-EC20. […] Whole animal images were taken 9 hours post-injection. […] The percentage of the injected dose per gram of tissue was determined and plotted. Error bars represent standard deviation. (□) Competition; (▪) L2-PEG36-EC20. […] Whole animal images were taken 24 hours post-injection. […] The percentage of the injected dose per gram of tissue was determined and plotted. Error bars represent standard deviation. (□) Competition; (▪) L2-PEG36-EC20. […] At various times, animals were sacrificed by CO2 asphyxiation. […] Three mice bearing HT-29 xenografts were administered 10 nmol of conjugate via tail vein injection while an additional three mice also received 100-fold excess unconjugated inhibitor. A single mouse from each of the two groups was sacrificed for whole animal imaging and tissue/organ biodistribution analysis at 4, 9 and 24 hours post injection.

HT-29 cells [3] = test: 99mTc conjugates binding to HT-29 cells (apparent KD, gamma counting); design: species or system human; conditions: for Kd: 99mTc-bound conjugate, 1 h at 37° C., read-out: Binding Affinity (apparent KD)
Protocol: HT-29 cells (150,000 cells/well in 500 μL) were seeded into 24-well Falcon plates and allowed to form monolayers over 48 h. […] After incubating for 1 h at 37° C., cells were rinsed twice with 1 mL of medium and 1 mL of tris buffer. After dissolving in 0.5 mL of 0.25 M NaOH (aq), cells were transferred into individual γ-counter tubes and radioactivity was counted using a γ-counter (Packard, Packard Instrument Company). Apparent KD was calculated by plotting bound radioactivity versus the concentration of radiotracer using GraphPad Prism 4.

HT29 subcutaneous tumors = test: In vivo xenograft tumor efficacy of L2-Tubulysin B; design: species or system mice; conditions: for tumor growth: thrice weekly for 3 weeks
Protocol: Once tumors reached a volume of ˜100 mm^3, mice were randomized into various treatment groups (n=3 for each IP group). L2-Tubulysin B (2 μmol/kg) was administered intraperitoneally in the presence or absence of 100-fold excess CA IX ligand L2 every other day for 9 doses. Tumor volume and weight were measured every other day. Error bars represent standard error of the mean. FIG. 10A: (●) PBS Control, (▴) L2-Tubulysin B, (□) Competition. FIG. 10B: (●) PBS Control, (▴) L2-Tubulysin B, (□) Competition.
Once tumors reached a volume of ˜100 mm^3, mice were randomized into various treatment groups (n=5 for each IV group). CA IX-Tubulysin B ([…]) was administered via tail vein injection in the presence or absence of 100-fold excess CA IX ligand every other day for 9 doses. Tumor volume and weight were measured every other day. Error bars represent standard error of the mean. FIG. 11A: (●) PBS Control, (▴) L2-Tubulysin B, (□) Competition. FIG. 11B: (●) PBS Control, (▴) L2-Tubulysin B, (□) Competition.
In vivo xenograft tumor efficacy of L2-Tubulysin B. HT29 cells (5.0×10^6) were injected into the shoulders of 5-6 week old female nu/nu mice. Tumors were measured in two perpendicular directions thrice weekly with vernier calipers and their volumes were calculated as 0.5×L×W^2, where L is the longest axis (in millimeters), and W is the axis perpendicular to L (in millimeters). Dosing of L2-Tubulysin B in the presence or absence of 100-fold excess CA IX inhibitor L2 was initiated when the subcutaneous tumors reached ˜100 mm^3 in volume. Dosing solutions were prepared in saline and filtered through a 0.22 μm filter. Solutions were administered via tail vein injection or intraperitoneally. Each mouse received 2 μmol/kg L2-Tubulysin B per injection. Injections were given thrice weekly for 3 weeks and the mice were weighed concurrently.

HT-29 cells [4] = type: cell-based, human; conditions: for IC50: 2 h exposure, additional 66 h in fresh medium, read-out: IC50 (3H-thymidine incorporation)
Protocol: After washing, the cells were incubated for […] and their viability was determined via ^3H-thymidine uptake.
HT-29 cells were seeded on amine-coated 24-well plates and allowed to form monolayers. The spent medium in each well was replaced with fresh medium (0.5 mL) containing various concentrations of Tubulysin B or L2-Tubulysin B in the presence or absence of 100-fold excess CA IX inhibitor L2. After incubating for 2 h at 37° C., cells were rinsed 3 times with fresh medium and then incubated an additional 66 h at 37° C. in fresh medium. Spent medium in each well was again replaced with fresh medium (0.5 mL) containing ^3H-thymidine (1 μCi/ml) and the cells were incubated for an additional 4 h. After washing the cells 3 times with medium, they were dissolved in 0.5 mL of 0.25 M NaOH. Thymidine incorporation was then determined by counting cell-associated radioactivity using a scintillation counter (Packard, Packard Instrument Company). The IC50 value was derived from a plot of the percent of ^3H-thymidine incorporation versus log concentration using Graph Pad Prism 4 and TableCurve 2D software.

Maximum tolerated dose = type: in vivo, mice; conditions: for Euthanized (mice) / Healthy (mice) / Sick (mice): thrice weekly tail vein, three mice per group
Protocol: Maximum tolerated dose. Various concentrations of L2-Tubulysin B were administered to male nu/nu mice thrice weekly via tail vein injection. Visibly sick mice were recorded and if necessary euthanized before the end of the experiment. […] Therefore, a dose of 2 μmol/kg was used for further in vivo efficacy studies.

With `CN(C)c1ccc2c(-c3ccc(C(=O)NCCCCCNC(=O)CN(CCN(CC(=O)O)CC(=O)Nc4ccc(S(N)(=O)=O)cc4)CC(=O)Nc4ccc(S(N)(=O)=O)cc4)cc3C(=O)O)c3ccc(=[N+](C)C)cc-3oc2c1` [Conjugate L2-Rhodamine] the “binding to HT-29 cells and competition by excess unconjugated inhibitor” value (HT-29 cells [1]) was “bound the cells and were competed in the presence of excess unconjugated inhibitor”, the “binding in the presence of competing unconjugated CA IX inhibitor” value ([2]; competing unconjugated CA IX inhibitor as printed (method: 100-fold excess L2)) was “essentially no binding was observed” and the “binding to cell lines” value ([2]; dye conjugate alone, 1 hour at 37° C., confocal microscopy) was “binding is observed in every cell line tested”.
For `CN(C)c1ccc2c(-c3ccc(C(=O)NCCOCCOCCOCCOCCC(=O)Nc4cccc(NC(=O)Nc5ccc(S(N)(=O)=O)cc5)c4)cc3C(=O)O)c3ccc(=[N+](C)C)cc-3oc2c1` [Conjugate L3-Rhodamine], the “binding to HT-29 cells and competition by excess unconjugated inhibitor” value (HT-29 cells [1]) was “bound the cells and were competed in the presence of excess unconjugated inhibitor”.
With `N[C@H](CNC(=O)CCOCCOCCOCCOCCOCCOCCOCCOCCOCCOCCOCCOCCOCCOCCOCCOCCOCCOCCOCCOCCOCCOCCOCCOCCOCCOCCOCCOCCOCCOCCOCCOCCOCCOCCOCCOCCNC(=O)CN(CCN(CC(=O)O)CC(=O)Nc1ccc(S(N)(=O)=O)cc1)CC(=O)Nc1ccc(S(N)(=O)=O)cc1)C(=O)N[C@@H](CC(=O)O)C(=O)NC[C@H](CS)C(=O)O` [L2-PEG36-EC20] the “tumor intensity with concurrent 100-fold excess unconjugated inhibitor” value (HT-29 xenograft tumors; 4, 9 and 24 hours post injection) was “did not exhibit any intensity in the tumor”, the “relative average radioactive intensity in the tumor” value (HT-29 xenograft tumors; 4 hours post injection) was about 1300 and the “relative average radioactive intensity in the tumor” value (HT-29 xenograft tumors; 9 hours post injection) was 750. The “relative average radioactive intensity in the tumor” value (HT-29 xenograft tumors; 24 hours post injection) was 350 and the Kd (HT-29 cells [3]) was 57 nM.
In the case of `CCCC(=O)OCN(C(=O)[C@@H](NC(=O)[C@H]1CCCCN1C)[C@@H](C)CC)[C@H](C[C@@H](OC(C)=O)c1nc(C(=O)N[C@@H](Cc2ccc(O)cc2)C[C@H](C)C(=O)NNC(=O)OCCSSC[C@H](NC(=O)[C@H](CC(=O)O)NC(=O)[C@@H](N)CNC(=O)CCOCCOCCOCCOCCOCCOCCOCCOCCOCCOCCOCCOCCNC(=O)CN(CCN(CC(=O)O)CC(=O)Nc2ccc(S(N)(=O)=O)cc2)CC(=O)Nc2ccc(S(N)(=O)=O)cc2)C(=O)O)cs1)C(C)C` [L2-Tubulysin B], the “tumor growth with 100-fold excess CA IX inhibitor L2” value (HT29 subcutaneous tumors; 2 μmol/kg) is reported as “growth of the tumors was similar to the control group”, the tumor growth (HT29 subcutaneous tumors; 2 μmol/kg intraperitoneally) is reported as “essentially halted tumor growth” and the tumor growth (HT29 subcutaneous tumors; 2 μmol/kg via tail vein injection) is reported as “essentially halted tumor growth”. For the same compound, the gross toxicity (HT29 subcutaneous tumors; 2 μmol/kg, both routes) was “no gross toxicity was observed”, the loss of weight (HT29 subcutaneous tumors; 2 μmol/kg, both routes) was “no loss of weight was observed” and the IC50 (HT-29 cells [4]) was 4.4 nM. The “cytotoxic effect with 100-fold excess of the unconjugated inhibitor” value (HT-29 cells [4]; HT-29 cells) was “completely abrogated”, the adverse events (Maximum tolerated dose; 1 μmol/kg) was “no adverse events were identified” and the “Euthanized (mice)” value (Maximum tolerated dose; 1 μmol/kg) was 0. The “Healthy (mice)” value (Maximum tolerated dose; 1 μmol/kg) was 3, the “Sick (mice)” value (Maximum tolerated dose; 1 μmol/kg) was 0 and the “Euthanized (mice)” value (Maximum tolerated dose; 3 μmol/kg) was 0. The “Healthy (mice)” value (Maximum tolerated dose; 3 μmol/kg) was 2, the “Sick (mice)” value (Maximum tolerated dose; 3 μmol/kg) was 1 and the “Euthanized (mice)” value (Maximum tolerated dose; 5 μmol/kg) was 2. The “Healthy (mice)” value (Maximum tolerated dose; 5 μmol/kg) was 0, the “Sick (mice)” value (Maximum tolerated dose; 5 μmol/kg) was 1 and the signs of toxicity (Maximum tolerated dose; highest dose) was “all mice showed signs of toxicity”.
With `N[C@H](CNC(=O)CCOCCOCCOCCOCCOCCOCCOCCOCCOCCOCCOCCOCCNC(=O)CCC(=O)Nc1cccc(NC(=O)Nc2ccc(S(N)(=O)=O)cc2)c1)C(=O)N[C@@H](CC(=O)O)C(=O)NC[C@H](CS)C(=O)O` [L3-PEG12-EC20] the Kd (HT-29 cells [3]) was 146 nM and the “decrease of binding by addition of the PEG12-EC20” value (HT-29 cells [3]; binding affinity of conjugate versus reported Ki of original ligand) was 162 fold.
`CCCC(=O)OCN(C(=O)[C@@H](NC(=O)[C@H]1CCCCN1C)[C@@H](C)CC)[C@H](C[C@@H](OC(C)=O)c1nc(C(=O)N[C@@H](Cc2ccc(O)cc2)C[C@H](C)C(=O)O)cs1)C(C)C` [Tubulysin B, reference compound] gave an IC50 (HT-29 cells [4]) of 0.08 nM.
